From patent publication US8697869B2, “3-(heteroaryl-amino)-1,2,3,4-tetrahydro-9H-carbazole derivatives and their use as prostaglandin D2 receptor modulators” (Actelion Pharmaceuticals Ltd., priority 2010, dated 2014)

What was measured:
[1] = test system: eosinophils; assay: Eosinophil shape change assay with human plasma; type: cell-based; details: Eosinophil; human polymorphonuclear cells, 50% human plasma, activated with 100 nM PGD2
Protocol: After obtaining informed consent, blood samples were drawn by venipuncture according to the protocol approved by the ethics committee of Basel, Switzerland. Polymorphonuclear leukocytes (containing eosinophils, basophils and neutrophils) were isolated using the Polymorphprep™ method (Axis-Shield). In brief, anticoagulated whole blood was layered onto a Polymorphprep gradient (density 1.113 g/ml) and centrifuged at 500 g for 30 min. The polymorphonuclear cell fraction was harvested and depleted for erythrocytes by hypotonic saline lysis.
The polymorphonuclear cells were resuspended in assay buffer (1×PBS with Ca^2+/Mg^2+ supplemented with 0.1% BSA, 10 mM HEPES, and 10 mM Glucose, pH 7.4) at 5×10^6 cells/ml and stained with anti-CD49d-APC ((APC=Allophycocyanin) for 1 hour at RT. Test compounds, at various concentrations, were preincubated 10 min in human plasma (anticoagulated with a thrombin inhibitor). Then, human plasma was added to the polymorphonuclear cells to 50% of final assay volume with polymorphonuclear cells at 4×10^6 cells/rd. After incubation for 10 minutes at 37° C., the polymorphonuclear cells were activated for 5 min at 37° C. by addition of PGD2 at 100 nM final concentration. Activation was stopped by addition of 0.5 ml paraformaldehyde (1%).
Immediately after fixation with paraformaldehyde, the samples were analyzed by FACSCanto flow cytometer (BD Biosciences) and target cells were identified by their forward-scatter (FSC) and side-scatter (SSC) characteristics. Eosinophils were identified by the anti-CD49d-APC signal and their characteristic side-scatter (SSC) profile. Shape change responses, indicative of eosinophil activation, were quantified as the percent of cells with an increased forward-scatter.

[2] = biological target: T1, hCRTH2 receptor (Homo sapiens (Human), UniProt Q9Y5Y4); assay: hCRTH2 receptor membranes radioligand displacement assay (3H-PGD2); details: 3H-PGD2 2.5 nM, HEK293-hCRTH2 membranes, Binding-Buffer with 0.1% BSA
T1 sequence (Q9Y5Y4 whole entry): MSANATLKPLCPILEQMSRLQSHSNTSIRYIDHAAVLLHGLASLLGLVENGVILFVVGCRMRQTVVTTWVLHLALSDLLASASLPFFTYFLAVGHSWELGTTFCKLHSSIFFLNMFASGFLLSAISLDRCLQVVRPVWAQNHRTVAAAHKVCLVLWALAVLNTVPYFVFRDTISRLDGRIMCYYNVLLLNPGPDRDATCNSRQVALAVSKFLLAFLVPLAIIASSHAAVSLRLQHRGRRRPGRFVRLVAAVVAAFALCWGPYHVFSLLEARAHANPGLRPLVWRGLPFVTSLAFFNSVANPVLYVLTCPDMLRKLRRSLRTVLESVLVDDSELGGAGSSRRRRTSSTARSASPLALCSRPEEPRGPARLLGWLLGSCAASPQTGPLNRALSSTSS
Protocol: Biological Assays: Preparation of hCRTH2 Receptor Membranes and Radioligand Displacement Assay:
(§1) First, recombinant HEK293-hCRTH2 cells were detached from culture plates into 5 ml buffer A/plate (Buffer A: 5 mM Tris, 1 mM MgCl2-6H2O pH=7.4) using a rubber policeman. Cells were then transferred into centrifugation tubes and centrifuged for 5 min at 400 g. The cell pellet was resuspended in the same buffer and tubes were frozen at −80° C. Cells were thawed and membrane fragments were generated by homogenization using a polytron homogenizer (30 seconds). The membrane fragments were then centrifuged at 3000 g for 20 minutes and resuspended in buffer C (Buffer C: 75 mM Tris, 25 mM MgCl2, 250 mM Saccharose pH 7.4). Aliquots of membrane fragements were stored at −20° C.
(§2) Binding assay was performed in a final assay volume of 250 μl. First, 25 μl of test compound, previously diluted in Binding-Buffer (Binding-Buffer: 50 mM Tris-Base, 100 mM NaCl, 1 mM EDTA, 0.1% BSA (protease free), 0.01% NaN3, 10 mM MnCl2 pH 7.0) was placed into each well. After addition of 75 μl Binding-Buffer, 50 μl of the radioligand ^3H-PGD2 (at 2.5 nM (220.000 dpm/well) from ANAWA ART0662) was added to each well. Binding assay was started by addition of 100 μl CRTH2 membrane fragments, reaching a final concentration of 20 μg/well. For non-specific binding, PGD2 was added to the reaction mixture to […] final concentration. This assay mix was incubated for 90 minutes at room temperature and then filtered through a GF/C filter 96-well plate which was pre-soaked for 3 hours in 0.5% polyethyleneimine (PEI). The filter-wells were washed three times with ice cold Binding-Buffer. Then, 40 μl of Microscint-40 (Packard) was added to each well and the retained radioactivity quantified in a Topcount (Packard).

[3] = biological target: T1, hCRTH2 receptor; assay: Radioligand displacement assay in presence of human serum albumin (HSA); details: 3H-PGD2 2.5 nM, Binding-Buffer with 0.5% HSA instead of 0.1% BSA
Protocol: as §1, §2
Radioligand Displacement Assay-Human Serum Albumin (HSA):
Radioligand displacement assay in presence of human serum albumin (HSA) was performed as described above, with following modifications. Binding-Buffer-HSA: Binding-buffer+0.5% Sigma Albumin from Human serum A1887 (instead of 0.1% BSA). A volume of 25 μl test compound, previously diluted in Binding-Buffer-HSA was placed into each well. After addition of 75 μl Binding-Buffer-HSA, 50 μl of ^3H-PGD2 (at 2.5 nM (220.000 dpm/well) from ANAWA ART0662) was added to each well. Remaining protocol was identical as described above.

SMILES	IC50 [1] [nM]	IC50 [2] [nM]	IC50 [3] [nM]
CN(c1nc2cc(Cl)ccc2s1)[C@H]1CCc2c(c3cc(F)ccc3n2CC(=O)O)C1 [Example 33, (3S)-2-(3-((5-chlorobenzo[d]thiazol-2-yl)(methyl)amino)-6-fluoro-3,4-dihydro-1H-carbazol-9(2H)-yl)acetic acid]	46	10	8
COCCN(c1ncc(Cl)cn1)[C@H]1CCc2c(c3cc(F)ccc3n2CC(=O)O)C1 [Example 34, (3S)-2-(3-((5-chloropyrimidin-2-yl)(2-methoxyethyl)amino)-6-fluoro-3,4-dihydro-1H-carbazol-9(2H)-yl)acetic acid]	8	5.9	14
CN(c1nc2ccc(F)cc2s1)[C@H]1CCc2c(c3cc(F)ccc3n2CC(=O)O)C1 [Example 38, (3S)-2-(6-fluoro-3-((6-fluorobenzo[d]thiazol-2-yl)(methyl)amino)-3,4-dihydro-1H-carbazol-9(2H)-yl)acetic acid]	2	1.2	9
CN(c1nc2cc(F)ccc2s1)[C@H]1CCc2c(c3cc(F)ccc3n2CC(=O)O)C1 [Example 39, (3S)-2-(6-fluoro-3-((5-fluorobenzo[d]thiazol-2-yl)(methyl)amino)-3,4-dihydro-1H-carbazol-9(2H)-yl)acetic acid]	16	3.1	6
CN(c1nc2ccc(Cl)cc2o1)[C@H]1CCc2c(c3cc(F)ccc3n2CC(=O)O)C1 [Example 40, (3S)-2-(6-fluoro-3-((6-chlorobenzo[d]oxazol-2-yl)(methyl)amino)-3,4-dihydro-1H-carbazol-9(2H)-yl)acetic acid]	75	2	21
CN(c1ncc(C2CC2)cn1)[C@H]1CCc2c(c3cc(F)ccc3n2CC(=O)O)C1 [Example 42, (3S)-2-(3-((5-cyclopropylpyrimidin-2-yl)(methyl)amino)-6-fluoro-3,4-dihydro-1H-carbazol-9(2H)-yl)acetic acid]	19	2.2	36
CN(c1nc2ccc(F)cc2o1)[C@H]1CCc2c(c3cc(F)ccc3n2CC(=O)O)C1 [Example 43, (3S)-2-(6-fluoro-3-((6-fluorobenzo[d]oxazol-2-yl)(methyl)amino)-3,4-dihydro-1H-carbazol-9(2H)-yl)acetic acid]	6	4.6	12
Cc1csc(N(C)C2CCc3c(c4cc(F)ccc4n3CC(=O)O)C2)n1 (stereo not drawn) [Example 45, 2-(6-fluoro-3-(methyl(4-methylthiazol-2-yl)amino)-3,4-dihydro-1H-carbazol-9(2H)-yl)acetic acid]	414	9.7	25
